Measurements: publication PMC11433825, “Bidentate Substrate Binding Mode in Oxalate Decarboxylase” (Molecules, 2024)
Counter-ions that a name gives are not always drawn.

Columns and labels:
[1] = target: T1, Oxalate decarboxylase (OxDC) (Bacillus subtilis, UniProt O34714, W96F); experiment: X-band […] Mims ENDOR; format: binding; conditions: labelled compound (13C), 50 mM; citrate pH 5.0, 50% glycerol, 10 mM ascorbate, 5 uM DTPA; 5 K; bidentate to N-terminal active-site Mn(II)
T1 construct: recombinant, C-terminal His6 tag kept, IPTG/heat-shock expression with MnCl2, Ni-NTA purified; Mn(II) in two cupin sites per subunit
T1 sequence (O34714 whole entry W96F): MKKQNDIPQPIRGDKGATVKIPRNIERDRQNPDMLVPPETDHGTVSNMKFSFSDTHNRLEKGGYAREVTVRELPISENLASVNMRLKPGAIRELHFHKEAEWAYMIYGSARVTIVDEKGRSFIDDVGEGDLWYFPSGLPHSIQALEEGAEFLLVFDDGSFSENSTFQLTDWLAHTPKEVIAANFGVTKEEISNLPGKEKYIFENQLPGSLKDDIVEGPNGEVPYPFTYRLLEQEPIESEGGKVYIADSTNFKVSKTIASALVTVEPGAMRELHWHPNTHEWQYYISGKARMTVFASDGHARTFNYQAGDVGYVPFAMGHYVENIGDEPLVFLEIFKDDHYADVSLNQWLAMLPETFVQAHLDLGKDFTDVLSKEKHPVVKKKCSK

[2] = target: T2, Oxalate decarboxylase (OxDC) (Bacillus subtilis, UniProt O34714); experiment: X-band […] Mims ENDOR; format: binding; conditions: labelled compound (13C), 50 mM; Tris pH 8.5, 50% glycerol, 10 mM ascorbate, 5 uM DTPA; 5 K; bidentate to N-terminal active-site Mn(II)
T2 construct: recombinant, C-terminal His6 tag kept, IPTG/heat-shock expression with MnCl2, Ni-NTA purified; Mn(II) in two cupin sites per subunit
T2 sequence (O34714 whole entry): as the sequence (O34714 whole entry W96F) above, with F96W counted along it

With `O=C(O)C(=O)O` [^13C-labeled oxalate] the “X-band 13C Mims ENDOR” value [1] was “Mn(II) ion in the active site of the OxDC mutant W96F at low pH” and the “X-band 13C Mims ENDOR” value [2] was “bidentate binding of oxalate in WT OxDC at high pH where the enzyme is inactive”.
